Assay results from patent publication US20020028807A1, “Non-nucleoside reverse transcriptase inhibitors” (priority 2000, published 2002).

What was measured:
[1] = target: T1, HIV-1 RT wild-type (WT) (Human immunodeficiency virus type 1 group M subtype B, UniProt P03366); assay: Reverse transcriptase (RT) assay, wild-type enzyme; type: biochemical
T1 construct: an HIV RT clone pKRT2 containing only the RT p66 gene regulated by the lac operon/trc promoter; made in house; host or cells: E. coli JM109, vector pKK233-2
Excerpt: (§1) Among the enzymes for which Human Immunodeficiency Virus (HIV-1) encodes is a reverse transcriptase (1), so-named because it transcribes a DNA copy from an RNA template. This activity can be quantitatively measured in a cell-free enzyme assay and is based upon the observation that reverse transcriptase is able to use a synthetic template poly r(C) primed with a biotinylated oligo d(G) to transcribe a radio-labelled DNA strand utilising 3H-dGTP as a substrate. The assay described below utilises the wild-type enzyme (which is the predominant form of the enzyme observed in patients infected with HIV-1) and can also be used with mutant RT enzymes (for example, Y181C, prepared by site-directed mutagenesis in which the tyrosine residue at codon 181 has been replaced by a cysteine residue) in analogous assay conditions. This assay allows compounds to be evaluated for their effectiveness at inhibiting the mutant enzymes.
(§2) Some HIV-1 IIIB clone BH10 RT mutants were provided by Dr. C.-K. Shih (Boehringer Ingelheim Pharmaceutials Inc., U.S.A.) in the vector pKK233-2 (Pharmacia). Briefly an HIV RT clone pKRT2 containing only the RT p66 gene regulated by the lac operon/trc promoter was obtained from Dr. W. Summers (Yale University) (2). A variety of specific amino acid substitutions were introduced into the wild-type RT gene by site-directed mutagenesis. RT clones were subcloned into the pKK233-2 bacterial expression vector. Clones provided included wild-type, Val106Ala, Tyr181Cys, Tyr188Cys, Tyr188Leu, Gly190Ala and Pro236Leu. Others were made in-house by site-directed mutagenesis of the pKK233-2 RT clones including Lys103Asn, Lys103Asn/Tyr181Cys, Lys103Asn/Leu100Ile, Lys103Asn/Pro225His, and Lys103Asn/Val108Ile.
(§3) Purification of recombinant reverse transcriptase was performed using a combination of methods previously described (3). A single colony from a fresh plate of transformed JM109 cells was used to initiate growth of a pre-culture grown o/n at 37° C. Two liters of growth medium were inoculated with this pre-culture. At OD600˜1.5 (5-6 h at 37° C.), RT gene expression was induced with IPTG (1 mM final), and the fermentation was continued for a few more hours at 37° C. After centrifugation, supernatants were discarded while cell pellets were pooled and stored at −80° C. until purification. Cells were thawed at 4° C. overnight and suspended in lysis buffer (MES 50 mM pH 6, EDTA 1 mM, 10% v/v glyerol, 0.02% w/v OBG, 0.02% w/v sodium azide). Lysozyme was added and the mixture was incubated on ice for 40 minutes. After homogenization using a bounce in presence of lysozyme and sonication, the cells were centrifuged for 30 minutes. Supernatant (S1) was saved and stored at 4° C. The centrifuged pellet was resuspended in extraction buffer (MES 50 mM pH 6, KPO4 50 mM pH 6, KCl 100 mM, 10% v/v glycerol, 0.02% w/v OBG, 0.02% w/v sodium axide) and stirred for 30 minutes at 4° C. This second mixture was centrifuged again and the supernatant (S2) was saved. The above procedure was repeated 2 more times saving supernatants S3 and S4 and one last extraction was performed overnight (S5). Polymin P (0.005% final) was added to the combined supernatants to remove nucleic acids. This solution was stirred for 75 minutes at 4° C. and centrifuged for 1 h. The supernatant (SS1) was precipitated on ice with 20% w/v ammonium sulfate and stirred for 1 h at 4° C. The mixture was then centrifuged and the resulting supernatant (SS2) was precipitated with additional 40% w/v ammonium sulfate (60% total), stirred for 1 h and centrifuged again. The final pellet (P1) was stored overnight at 4° C. before undergoing purification the following day. All steps of the purification were performed at 4° C. unless otherwise stated.
(§4) Pellet (P1) was resuspended into MES 50 mM pH 6, KPO4 10 mM pH 6, KCl 100 mM, 10% v/v glycerol, 0.02% w/v OBG, 0.02% w/v sodium azide. The suspension was dialysis against the same buffer overnight using 12-14 kD MWCO dialysis tubing. […]

[2] = target: T2, HIV-1 RT K103N (Human immunodeficiency virus type 1 group M subtype B, UniProt P03366, K702N); assay: Reverse transcriptase (RT) assay, K103N mutant; type: biochemical
T2 construct: an HIV RT clone pKRT2 containing only the RT p66 gene regulated by the lac operon/trc promoter; made in house; host or cells: E. coli JM109, vector pKK233-2
Excerpt: as §1, §2, §3, §4

[3] = target: T3, HIV-1 RT Y181C (Human immunodeficiency virus type 1 group M subtype B, UniProt P03366, Y780C); assay: Reverse transcriptase (RT) assay, Y181C mutant; type: biochemical
T3 construct: an HIV RT clone pKRT2 containing only the RT p66 gene regulated by the lac operon/trc promoter; made in house; host or cells: E. coli JM109, vector pKK233-2
Excerpt: as §1, §2, §3, §4

[4] = target: T4, HIV-1 RT V106A (Human immunodeficiency virus type 1 group M subtype B, UniProt P03366, V705A); assay: Reverse transcriptase (RT) assay, V106A mutant; type: biochemical
T4 construct: an HIV RT clone pKRT2 containing only the RT p66 gene regulated by the lac operon/trc promoter; made in house; host or cells: E. coli JM109, vector pKK233-2
Excerpt: as §1, §2, §3, §4

[5] = target: T5, HIV-1 RT Y188L (Human immunodeficiency virus type 1 group M subtype B, UniProt P03366, Y787L); assay: Reverse transcriptase (RT) assay, Y188L mutant; type: biochemical
T5 construct: an HIV RT clone pKRT2 containing only the RT p66 gene regulated by the lac operon/trc promoter; made in house; host or cells: E. coli JM109, vector pKK233-2
Excerpt: as §1, §2, §3, §4

[6] = target: T6, HIV-1 RT K103N/Y181C (Human immunodeficiency virus type 1 group M subtype B, UniProt P03366, K702N/Y780C); assay: Reverse transcriptase (RT) assay, K103N/Y181C mutant; type: biochemical
T6 construct: an HIV RT clone pKRT2 containing only the RT p66 gene regulated by the lac operon/trc promoter; made in house; host or cells: E. coli JM109, vector pKK233-2
Excerpt: as §1, §2, §3, §4

[7] = target: T7, HIV-1 RT K103N/P225H (Human immunodeficiency virus type 1 group M subtype B, UniProt P03366, K702N/P824H); assay: Reverse transcriptase (RT) assay, K103N/P225H mutant; type: biochemical
T7 construct: an HIV RT clone pKRT2 containing only the RT p66 gene regulated by the lac operon/trc promoter; made in house; host or cells: E. coli JM109, vector pKK233-2
Excerpt: as §1, §2, §3, §4

[8] = target: T8, HIV-1 RT K103N/V108I (Human immunodeficiency virus type 1 group M subtype B, UniProt P03366, K702N/V707I); assay: Reverse transcriptase (RT) assay, K103N/V108I mutant; type: biochemical
T8 construct: an HIV RT clone pKRT2 containing only the RT p66 gene regulated by the lac operon/trc promoter; made in house; host or cells: E. coli JM109, vector pKK233-2
Excerpt: as §1, §2, §3, §4

[9] = target: T9, HIV-1 RT K103N/L100I (Human immunodeficiency virus type 1 group M subtype B, UniProt P03366, K702N/L699I); assay: Reverse transcriptase (RT) assay, K103N/L100I mutant; type: biochemical
T9 construct: an HIV RT clone pKRT2 containing only the RT p66 gene regulated by the lac operon/trc promoter; made in house; host or cells: E. coli JM109, vector pKK233-2
Excerpt: as §1, §2, §3, §4

[10] = system: HIV coding for wild-type reverse transcriptase (WT RT); assay: ELISA (p24) assay of HIV replication in C8166 cell culture, wild-type RT virus; type: cell-based, HIV-1; conditions: Human immunodeficiency virus 1, C8166, 72 h, read-out: EC50 WT RT
Procedure: (§5) Compounds of the invention were tested for their ability to inhibit HIV replication in cell culture in a 96-well plate assay. Complete RPMI 1640, consisting of RPMI 1640+10% fetal bovine serum, 10 μg/ml gentamycin and 10 μM β-mercaptoethanol was used for dilution of the compound as well as cell growth medium. The T lymphocyte cell line C8166 was infected at a multiplicity of infection of 0.001 with viruses coding for wild-type and mutant reverse transcriptase. Cells were then incubated for three days in the presence of serial dilutions of the compounds of the invention. The supernatant was pooled from eight replica wells and the concentration of extracellular p24 was determined using a commercially available HIV-1 p24 antigen assay kit (Beckman-Coulter®). The level of inhibition (% inhibition) was calculated with the following equation: [formula]

[11] = target: T10, HIV-1 RT Y188C (Human immunodeficiency virus type 1 group M subtype B, UniProt P03366, Y787C); assay: Reverse transcriptase (RT) assay, Y188C mutant; type: biochemical
T10 construct: an HIV RT clone pKRT2 containing only the RT p66 gene regulated by the lac operon/trc promoter; made in house; host or cells: E. coli JM109, vector pKK233-2
Excerpt: as §1, §2, §3, §4

[12] = system: HIV coding for mutant reverse transcriptase V106A; assay: ELISA (p24) assay of HIV replication in C8166 cell culture, V106A virus; type: cell-based, HIV-1; conditions: Human immunodeficiency virus 1, C8166, 72 h, read-out: EC50 V106A
Procedure: as §5

[13] = system: HIV coding for mutant reverse transcriptase Y188L; assay: ELISA (p24) assay of HIV replication in C8166 cell culture, Y188L virus; type: cell-based, HIV-1; conditions: Human immunodeficiency virus 1, C8166, 72 h, read-out: EC50 Y188L
Procedure: as §5

[14] = system: HIV coding for mutant reverse transcriptase K103N/Y181C; assay: ELISA (p24) assay of HIV replication in C8166 cell culture, K103N/Y181C virus; type: cell-based, HIV-1; conditions: Human immunodeficiency virus 1, C8166, 72 h, read-out: EC50 K103N/Y181C
Procedure: as §5

SMILES	IC50 [1] [nM]	IC50 [2] [nM]	IC50 [3] [nM]	IC50 [4] [nM]	IC50 [5] [µM]	IC50 [6] [nM]	IC50 [7] [nM]	IC50 [8] [nM]	IC50 [9] [nM]	EC50 [10] [nM]	IC50 [11] [nM]	EC50 [12] [nM]	EC50 [13] [nM]	EC50 [14] [nM]
CCN1c2ncc(CCOc3ccnc4ccccc34)cc2C(=O)Nc2c(C)ccnc21 [compound 8, 5,11-Dihydro-11-ethyl-4-methyl-8-{2-(4-quinolinyloxy)ethyl}-6H-dipyrido[3,2-b:2′,3′-e][1,4]diazepin-6-one]	10	37	43	190	7.51	301	67	63	135	0.93				
CCN1C(=O)c2cc(CCOc3ccnc4ccccc34)cnc2N(CC)c2ncccc21 [compound 26, 5,11-Dihydro-5,11-diethyl-8-{2-(4-quinolinyloxy)ethyl}-6H-dipyrido[3,2-b:2′,3′-e][1,4]diazepin-6-one]	8.9	40	51	1750	5.2	200	85	443		2.2	147			
CCN1c2ncc(CCOc3cccc4ncccc34)cc2C(=O)Nc2c(C)cc(Cl)nc21 [compound 25, 2-Chloro-5,11-dihydro-11-ethyl-4-methyl-8-{2-(5-quinolinyloxy)ethyl}-6H-dipyrido[3,2-b:2′,3′-e][1,4]diazepin-6-one]	8	19	17	84	2.54	64	23	38	28	2.2				
CCN1c2ncc(CCOc3cc[n+]([O-])c4ccccc34)cc2C(=O)Nc2c(C)cc(F)nc21 [compound 9, 5,11-Dihydro-11-ethyl-2-fluoro-4-methyl-8-{2-{(1-oxido-4-quinolinyl)-oxy}ethyl}-6H-dipyrido[3,2-b:2′,3′-e][1,4]diazepin-6-one]	14	23	43	98	3.39	175	25	58	88	0.92		5	118	7.6
